Values joined by “and” are separate entries in the source; they are usually repeats but may differ in a detail not shown here. Equal values may be shown once. Read-outs that look alike come from different tables or passages of the source. Where a SMILES comes first, the peptide text is derived from it. [ ]: non-standard residue; d: D form. The star is where a group is joined. ξ: configuration not given here. Ala(6-(2-MePh)pyridin-3-yl) = Cc1ccccc1-c1ccc(C[C@H](N)C(=O)O)cn1; Bip(2'-Et-4'-OMe) = CCc1cc(OC)ccc1-c1ccc(C[C@H](N)C(=O)O)cc1; Lactoyl(3-(imidazol-4-yl)) = O=C([C@@H](O)Cc1c[nH]cn1)*; Bip(2'-Me) = Cc1ccccc1-c1ccc(C[C@H](N)C(=O)O)cc1; ξαMePhe(2-F) = CC(N)(Cc1ccccc1F)C(=O)O; Thr(3ξ) = CC(O)[C@H](N)C(=O)O; ξαMeP = CC1(C(=O)O)CCCN1; Aib = CC(C)(N)C(=O)O
Legend:
[1] = Dog pharmacokinetic study; assay type: in vivo; conditions: for half-life: read-out: t½ (converted)
Protocol: The pharmacokinetic parameters of the Compounds of SEQ ID NO: 9, 118, 151 and 158 were determined in male beagle dogs (n=3-4, 14±1 kg). Following an overnight fast, each animal received the Compounds of SEQ ID NO: 9, 118, 151 and 158 either as an intravenous bolus via femoral vein (67 μg/kg) or by subcutaneous injection given at near the shoulder blades (67 μg/kg). Each animal received both intravenous and subcutaneous doses with a one-week washout between doses following a crossover design. The dosing vehicle for both routes of administration was propylene glycol:pH 7.4 phosphate buffer (50:50) or 0.2 M Tris (pH 8.0). Serial blood samples were collected in EDTA-containing microcentrifuge tubes at predose, 0.083, 0.25, 0.5, 0.75, 1, 2, 4, 6, 8, 24, and 30 hours post-dose after intravenous administration; at predose, 0.25, 0.5, 0.75, 1, 2, 4, 6, 8, 24, and 30 hours post-dose after subcutaneous administration. Approximately 0.3 mL of blood was collected at each time point. Blood samples were immediately centrifuged at 4° C. The obtained plasma was frozen with dry ice and stored at −20° C. Plasma drug levels were determined using the LC-MS/MS assay described below.
Plasma samples from the in vivo dog study were prepared for analysis by precipitating plasma proteins with two volumes of AcCN containing an internal standard. The samples were vortex mixed and the precipitated proteins were removed by centrifugation. The resulting supernatants were transferred to a 96-well plate and 10 μL were injected for TFC-LC/MS/MS analysis.
The TFC-HPLC system (Cohesive TX-1 Flux, Aria 2300 System) consisted of a loading pump, an eluting pump, and a CTC PAL autosampler (Cohesive Technologies, Franklin, Mass.). The columns used were Phenomenex Synergi Fusion-RP (C18, 2.0×50 mm, 4μ) (Phenomenex, Torrance, Calif.) as the analytical column and Turbo-Flow (TF) HTLC Cyclone column (0.5×50 mm) (Cohesive Technologies, Franklin, Mass.) as the extraction column for on-line sample processing. The mobile phase A consisted of 10 mM ammonium formate and 0.1% formic acid in water and mobile phase B consisted of 0.1% formic acid in AcCN. Turbo-Flow Chromatography was used to obtain a cleaner sample. A rapid gradient elution was used for analyte separation. The samples were injected onto the Turbo-Flow HTLC Cyclone column and analytes were separated from biological fluid components with using 100% H2O at 1.5 mL/min. The TF column was back flushed and analytes were back eluted from the TF to HPLC analytical column using a ramp to 60% B over 2 min and held there for 30 seconds at 0.3 mL/min to separate and to elute the analytes from the HPLC column into the mass spectrometer. Both columns were washed for an additional minute and then both columns were re-equilibrated at initial conditions.
The HPLC was interfaced to a Sciex API 4000 mass spectrometer (Applied Biosystems, Foster City, Calif.) and was equipped with a TurboIonspray ionization source. Ultra high purity nitrogen was used as the nebulizing and turbo-gas. The temperature of turbo-gas was set at 300° C. and the interface heater was set at 60° C. Selected Reaction Monitoring (SRM) was used for data acquisition. Multiple charged ion species, i.e. (M+2H)^2+ for Compound of SEQ ID NO: 158 were selected in Q1 and were collisionally dissociated with high purity nitrogen at a pressure of 3.5×10^−3 torr in Q2 to form specific product ions which were subsequently monitored in Q3. The ion transitions and voltages are summarized below (Table 4).
The standard curve concentrations, ranging from 1 to 1000 nM, were analyzed in duplicate. The curves were fitted with a linear regression weighted by reciprocal concentration […]. Quality control (QC) samples, prepared in blank matrix at the same concentrations as the standards were also analyzed in each analytical set. […]

[2] = Exposure during ipGTT in ob/ob mice; assay type: in vivo, mouse; conditions: sc injection
Protocol: (§1) Peptides were dissolved in an appropriate vehicle at a concentration in nmol/ml equivalent to the dose that was to be administered in nmol/kg so that each mouse would receive the same volume/weight of dosing solution. Male C57BL/6-ob/ob mice (10 weeks old) were randomized into groups of 6 mice per group based on fed plasma glucose and body weight. After an overnight fast, mice were weighed and placed in the experimental lab. After 30 min in the environment, the mice were bled via tail tip at −30 min and immediately injected subcutaneously (sc) with vehicle or the peptide dissolved in vehicle (0.1 ml solution/100 g body weight). At time 0 the mice were bled and then injected intraperitoneally with 50% glucose (2 g/kg) to initiate the intraperitoneal glucose tolerance test (ipGTT). The mice were bled 30, 60, 120 and 180 min after the glucose injection. Blood samples were drawn into potassium EDTA, placed on ice during the study and subsequently centrifuged for 10 min at 3000 rpm at 4° C. Plasma samples were diluted 11-fold for glucose analysis in the Cobas System. Another 5 μl plasma sample was diluted 5-fold with 20 μl of Sample Diluent (Insulin ELISA assay kit, Crystal Chem. Inc.) and stored at −20° C. for subsequent analysis using the Ultra Sensitive Mouse Insulin ELISA kit (Crystal Chem Inc.).

ob/ob mice = test: Intraperitoneal glucose tolerance test (ipGTT) in ob/ob mice after sc injection; assay type: in vivo, mouse; conditions: for Potency in ob/ob mice: % AUC Reduction in Plasma Glucose in an IP Glucose Tolerance Test after SC Injection of Compound: 10 nmol/kg sc, relative to vehicle-treated group; for effect on postprandial plasma insulin / effect on postprandial plasma glucose: sc; for effect on postprandial plasma glucose: 0 to 180 or 210 min; for Potency in ob/ob mice ED50: sc injection, plasma glucose AUC in ipGTT
Protocol: as §1

[3] = vehicle propylene glycol/pH 7.4 phosphate buffer (1:1)
[4] = dog, plasma, 67 ug/kg, male beagle dogs, intravenous 67 μg/kg
[5] = dog, plasma, sc, 67 ug/kg, male beagle dogs, subcutaneous 67 μg/kg
[6] = vehicle 0.2 M Tris buffer (pH 8.0)
[7] = 30 nmol/kg sc, ipGTT ob/ob mice

| Exposure in dogs (sc@67 μg/kg) [1, 3] | Exposure/dose during ipGTT in ob/ob mice [2] | Exposure in dogs (sc@67 μg/kg) [1, 6] | Compound | Potency in ob/ob mice: % AUC Reduction in Plasma Glucose in an IP Glucose Tolerance Test after SC Injection of Compound (ob/ob mice) | effect on postprandial plasma insulin (ob/ob mice; ipGTT ob/ob mice) | effect on postprandial plasma glucose (ob/ob mice; ipGTT ob/ob mice) | Potency in ob/ob mice ED50 (ob/ob mice) | also measured |
| --- | --- | --- | --- | --- | --- | --- | --- | --- |
| 0.089 µM·h | 22 nM * h/nmol/kg |  | CCc1cc(OC)ccc1-c1ccc(C[C@H](NC(=O)[C@H](CC(=O)O)NC(=O)[C@H](CO)NC(=O)[C@@H](NC(=O)C(C)(Cc2ccccc2F)NC(=O)[C@@H](NC(=O)CNC(=O)[C@H](CCC(=O)O)NC(=O)C(C)(C)NC(=O)[C@@H](N)Cc2c[nH]cn2)C(C)O)C(C)O)C(=O)N[C@@H](Cc2ccc(-c3ccccc3C)cc2)C(N)=O)cc1 (stereo partly drawn) [Compound I, reference compound] (H-H[Aib]EG[Thr(3ξ)][ξαMePhe(2-F)][Thr(3ξ)]SD[Bip(2'-Et-4'-OMe)][Bip(2'-Me)]-NH2) | −15% (p = 0.247, NS) | statistically significant dose-dependent increase | decreasing in a dose-dependent manner |  |  |
| 1.23 µM·h | 18 nM * h/nmol/kg | 0.452 µM·h | CCc1cc(OC)ccc1-c1ccc(C[C@H](NC(=O)[C@H](CC(=O)O)NC(=O)[C@H](CO)NC(=O)[C@@H](NC(=O)C(C)(Cc2ccccc2F)NC(=O)[C@@H](NC(=O)CNC(=O)[C@H](CCC(=O)O)NC(=O)C(C)(C)NC(=O)[C@@H](N)Cc2c[nH]cn2)C(C)O)C(C)O)C(=O)N[C@@H](Cc2ccc(-c3ccccc3C)nc2)C(N)=O)cc1 (stereo partly drawn) [SEQ ID NO: 9] (H-H[Aib]EG[Thr(3ξ)][ξαMePhe(2-F)][Thr(3ξ)]SD[Bip(2'-Et-4'-OMe)][Ala(6-(2-MePh)pyridin-3-yl)]-NH2) | −68% (p < 0.0001) | significant increase | statistically significant decrease | 5 nmol/kg | AUC [1, 4]: 0.529 ± 0.125 µM·h; MRT [1, 4]: 2.4 ± 0.5 h; clearance ([1]; dog, plasma, 67 ug/kg, male beagle dogs, intravenous 67 μg/kg, read-out: CLp): 1.4 ± 0.4 mL/min/kg; Vd ([1]; dog, plasma, 67 ug/kg, male beagle dogs, intravenous 67 μg/kg, read-out: Vss): 0.21 ± 0.07 L/kg; half-life [1, 4]: 7.1 ± 2.1 h; AUC [1, 5]: 0.452 ± 0.153 µM·h; Cmax [1, 5]: 116 ± 34 nM; MRT [1, 5]: 3.6 ± 1 h; Tmax [1, 5]: 1.1 ± 0.6 h; half-life [1, 5]: 2.6 ± 1.2 h; bioavailability ([1]; dog, plasma, male beagle dogs, subcutaneous 67 μg/kg vs intravenous): 93 ± 22%; maximum increase in postprandial plasma insulin AUC (ob/ob mice; [7]): 187.7%; plasma glucose AUC decreased (ob/ob mice; 100 nmol/kg sc, ipGTT ob/ob mice): 85.8%; Potency in ob/ob mice ED50 (ob/ob mice; listed as 9): ED50 = 5 nmoles/kg |
| 4.02 µM·h | 4.4 nM * h/nmol/kg |  | CCc1cc(OC)ccc1-c1ccc(C[C@H](NC(=O)[C@H](CC(=O)O)NC(=O)[C@H](CO)NC(=O)[C@@H](NC(=O)C(C)(Cc2ccccc2F)NC(=O)[C@@H](NC(=O)CNC(=O)[C@H](CCC(=O)O)NC(=O)C2(C)CCCN2C(=O)[C@@H](N)Cc2c[nH]cn2)[C@@H](C)O)[C@@H](C)O)C(=O)N[C@@H](Cc2ccc(-c3ccccc3C)nc2)C(N)=O)cc1 (stereo partly drawn) [SEQ ID NO: 118] (H-H[ξαMeP]EGT[ξαMePhe(2-F)]TSD[Bip(2'-Et-4'-OMe)][Ala(6-(2-MePh)pyridin-3-yl)]-NH2) | −70% (p < 0.001) |  | statistically significant decrease | 2.5 nmol/kg | plasma glucose AUC decreased (ob/ob mice; [7]): 81%; Potency in ob/ob mice ED50 (ob/ob mice; listed as 118): ED50 = 2.5 nmoles/kg |
|  | 16 nM * h/nmol/kg | 1.566 µM·h | CCc1cc(OC)ccc1-c1ccc(C[C@H](NC(=O)[C@H](CC(=O)O)NC(=O)[C@H](Cc2c[nH]cn2)NC(=O)[C@@H](NC(=O)C(C)(Cc2ccccc2F)NC(=O)[C@@H](NC(=O)CNC(=O)[C@H](CCC(=O)O)NC(=O)C2(C)CCCN2C(=O)[C@@H](O)Cc2c[nH]cn2)[C@@H](C)O)[C@@H](C)O)C(=O)N[C@@H](Cc2ccc(-c3ccccc3C)nc2)C(N)=O)cc1 (stereo partly drawn) [SEQ ID NO: 151] ({Lactoyl(3-(imidazol-4-yl))}-[ξαMeP]EGT[ξαMePhe(2-F)]THD[Bip(2'-Et-4'-OMe)][Ala(6-(2-MePh)pyridin-3-yl)]-NH2) |  |  | statistically significant decrease | 1 nmol/kg and 2 nmol/kg | plasma glucose AUC decreased (ob/ob mice; 3 nmol/kg sc, ipGTT ob/ob mice): 67%; Potency in ob/ob mice ED50 (ob/ob mice; listed as 151): ED50 = 1 nmoles/kg |
